Biological target: T1, Bovine serum albumin (BSA) (Bos taurus, UniProt P02769)
T1 construct: gene ALB
Conditions: read-out: Kb M^-1))

T1 sequence (P02769 25-607): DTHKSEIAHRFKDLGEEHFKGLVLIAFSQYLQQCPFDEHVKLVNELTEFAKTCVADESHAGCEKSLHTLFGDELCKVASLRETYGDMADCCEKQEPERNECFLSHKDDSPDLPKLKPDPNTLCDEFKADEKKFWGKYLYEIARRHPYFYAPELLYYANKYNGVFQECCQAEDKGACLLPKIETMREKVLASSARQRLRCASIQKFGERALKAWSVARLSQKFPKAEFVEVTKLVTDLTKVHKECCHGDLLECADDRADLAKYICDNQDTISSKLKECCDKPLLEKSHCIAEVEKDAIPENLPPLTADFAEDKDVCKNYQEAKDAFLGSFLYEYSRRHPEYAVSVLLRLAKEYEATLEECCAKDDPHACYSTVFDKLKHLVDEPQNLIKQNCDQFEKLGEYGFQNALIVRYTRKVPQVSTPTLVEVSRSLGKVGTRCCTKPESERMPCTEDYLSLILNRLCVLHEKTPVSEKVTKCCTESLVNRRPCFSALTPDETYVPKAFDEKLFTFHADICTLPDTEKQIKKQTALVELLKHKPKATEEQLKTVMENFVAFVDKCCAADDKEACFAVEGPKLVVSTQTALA

SMILES: CCCCCNC1=[S+][Pt-2]2([S]1)[n+]1ccccc1-c1cccc[n+]12 [[Pt(bpy)(amyl.dtc)]NO3]
- Kd: 148 µM
